Calls of active or inactive are those of the source. The rule behind the calls is not given here.
Experiments:
[1] = Half life in rat liver microsomes at 1 uM peincubated for 10 mins followed by NADPH addition and measured 60 mins by LC-MS/MS analysis; assay type: ADME, Microsome; conditions: time 70 min
[2] = Intrinsic clearance in rat liver microsomes at 1 uM peincubated for 10 mins followed by NADPH addition and measured 60 mins by LC-MS/MS analysis; assay type: ADME, Microsome; conditions: time 70 min, read-out: CLH
[3] = target: T1, C-X-C chemokine receptor type 4 (Homo sapiens, UniProt P61073); experiment: Antagonist activity at CXCR4 in human CD4-positive T cells assessed as inhibition of CXCL12-induced cytosolic calcium flux preincubated for 20 mins followed by CXCL12 addition by calcium 4 dye based FLIPR TETRA analysis; assay type: functional, cell-based, T cell
T1 sequence (P61073 whole entry): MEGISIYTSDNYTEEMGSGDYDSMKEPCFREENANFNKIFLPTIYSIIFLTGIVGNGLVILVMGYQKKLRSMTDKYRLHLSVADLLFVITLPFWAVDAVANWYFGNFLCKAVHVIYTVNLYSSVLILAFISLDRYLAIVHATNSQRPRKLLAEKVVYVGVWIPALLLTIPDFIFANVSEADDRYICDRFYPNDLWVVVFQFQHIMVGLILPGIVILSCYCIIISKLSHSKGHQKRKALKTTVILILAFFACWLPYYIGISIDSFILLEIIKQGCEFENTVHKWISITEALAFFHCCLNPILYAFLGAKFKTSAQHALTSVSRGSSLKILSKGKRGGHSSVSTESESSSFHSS

[4] = target: T1, C-X-C chemokine receptor type 4; experiment: Inhibition of APC-conjugated anti-human CXCR4 clone 12G5 binding to CXCR4 in human HPBALL cells measured after 3 hrs by FACS analysis; assay type: cell-based
[5] = target: T1, C-X-C chemokine receptor type 4; experiment: Antagonist activity at CXCR4 in human MDA-MB-231 cells assessed as inhibition of CXCL12-induced cell migration at 100 nM measured after 24 hrs by crystal violet staining based matrigel invasion assay; conditions: filed as antagonist
[6] = Protein binding in human plasma at 1 uM; assay type: ADME, cell-free; conditions: read-out: PPB (converted)
CYP2C19 = CYP2C19 (Homo sapiens, UniProt P33261); experiment: Inhibition of CYP2C19 in human liver microsomes at 10 uM using S-mephenytoin as substrate preincubated for 10 mins followed by NADPH addition measured after 10 mins by LC-MS/MS analysis relative to control; assay type: ADME; conditions: probe S-mephenytoin, time 20 min
Chain of CYP2C19 (P33261 whole entry): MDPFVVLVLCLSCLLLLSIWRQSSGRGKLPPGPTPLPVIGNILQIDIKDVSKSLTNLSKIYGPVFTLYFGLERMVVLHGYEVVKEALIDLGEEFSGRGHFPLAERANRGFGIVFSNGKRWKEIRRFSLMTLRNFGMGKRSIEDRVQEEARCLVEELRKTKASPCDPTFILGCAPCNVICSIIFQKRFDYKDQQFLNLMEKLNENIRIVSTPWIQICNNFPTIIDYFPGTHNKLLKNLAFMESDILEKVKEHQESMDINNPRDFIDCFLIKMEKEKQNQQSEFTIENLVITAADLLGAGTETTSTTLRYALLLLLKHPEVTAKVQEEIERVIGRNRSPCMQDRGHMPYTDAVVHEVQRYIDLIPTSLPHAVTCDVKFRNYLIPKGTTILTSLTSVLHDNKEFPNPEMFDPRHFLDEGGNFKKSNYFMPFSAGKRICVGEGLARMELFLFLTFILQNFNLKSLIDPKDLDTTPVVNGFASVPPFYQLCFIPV

[7] = Dissociation constant, basic pKa of compound by titration method; assay type: physicochemical
CYP1A2 = target: T2, CYP1A2 (Homo sapiens, UniProt P05177); experiment: Inhibition of CYP1A2 in human liver microsomes at 10 uM using phenacetin as substrate preincubated for 10 mins followed by NADPH addition measured after 10 mins by LC-MS/MS analysis relative to control; assay type: ADME; conditions: probe phenacetin, time 20 min
T2 sequence (P05177 whole entry): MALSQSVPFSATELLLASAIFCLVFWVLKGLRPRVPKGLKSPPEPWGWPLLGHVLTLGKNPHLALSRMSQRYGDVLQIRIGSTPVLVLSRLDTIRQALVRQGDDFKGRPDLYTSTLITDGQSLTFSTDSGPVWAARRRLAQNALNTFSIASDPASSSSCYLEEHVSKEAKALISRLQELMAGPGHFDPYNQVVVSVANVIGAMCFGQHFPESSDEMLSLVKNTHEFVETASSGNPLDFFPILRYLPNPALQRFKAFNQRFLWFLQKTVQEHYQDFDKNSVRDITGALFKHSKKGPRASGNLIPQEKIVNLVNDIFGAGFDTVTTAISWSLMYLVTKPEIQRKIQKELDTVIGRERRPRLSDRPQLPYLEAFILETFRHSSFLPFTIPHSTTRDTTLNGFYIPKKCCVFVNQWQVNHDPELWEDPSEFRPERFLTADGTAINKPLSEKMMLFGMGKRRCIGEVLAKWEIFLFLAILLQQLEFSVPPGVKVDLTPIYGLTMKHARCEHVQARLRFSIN

[8] = Protein binding in mouse plasma at 1 uM; assay type: ADME, cell-free; conditions: read-out: PPB (converted)
[9] = target: T3, C-X-C chemokine receptor type 1 (Homo sapiens) (UniProt P25024); experiment: Antagonist activity at CXCR1 (unknown origin) expressed in HEK293 cells assessed as suppression of IL-8-induced inhibition of forskolin-induced cAMP formation up to 10 uM preincubated for 15 mins followed by forskolin and IL-8 stimulation and measured after 15 mins by cAMP-d2 and Eu-Anti-cAMP based fluorescence assay; assay type: functional, cell-based; conditions: dose microM <=10, time 30.0 min
T3 sequence (whole entry): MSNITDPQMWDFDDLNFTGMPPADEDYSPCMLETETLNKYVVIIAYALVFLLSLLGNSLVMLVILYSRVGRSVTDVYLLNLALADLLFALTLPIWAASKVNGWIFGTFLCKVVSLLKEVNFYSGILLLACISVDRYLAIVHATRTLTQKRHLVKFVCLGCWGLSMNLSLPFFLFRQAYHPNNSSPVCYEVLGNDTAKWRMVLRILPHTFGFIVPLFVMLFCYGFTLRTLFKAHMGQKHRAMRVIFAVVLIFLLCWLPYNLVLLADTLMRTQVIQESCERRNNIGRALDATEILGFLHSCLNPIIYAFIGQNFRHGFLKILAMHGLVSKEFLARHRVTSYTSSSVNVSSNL

MDA-MB-231 = experiment: Cytotoxicity against human MDA-MB-231 cells assessed as reduction in cell proliferation up to 1000 nM by ATP-based celltiter-glo luminescent assay
L929 = experiment: Cytotoxicity against mouse L929 cells assessed as reduction in cell proliferation up to 1000 nM by ATP-based celltiter-glo luminescent assay
[10] = Protein binding in rat plasma at 1 uM; assay type: ADME, cell-free; conditions: read-out: PPB (converted)
[11] = Intrinsic clearance in human liver microsomes at 1 uM peincubated for 10 mins followed by NADPH addition and measured 60 mins by LC-MS/MS analysis; assay type: ADME, Microsome; conditions: time 70 min, read-out: CLH
[12] = Cytotoxicity against […] Hepa1-6 cells assessed as reduction in cell proliferation up to 1000 nM by ATP-based celltiter-glo luminescent assay
[13] = target: T4, C-C chemokine receptor type 6 (Homo sapiens) (UniProt P51684); experiment: Antagonist activity at CCR6 in human CD4-positive T cells assessed as inhibition of CCL20-induced cytosolic calcium flux up to 10 uM by calcium 4 dye based FLIPR TETRA analysis; assay type: functional; conditions: T cell, dose microM <=10
T4 sequence (whole entry): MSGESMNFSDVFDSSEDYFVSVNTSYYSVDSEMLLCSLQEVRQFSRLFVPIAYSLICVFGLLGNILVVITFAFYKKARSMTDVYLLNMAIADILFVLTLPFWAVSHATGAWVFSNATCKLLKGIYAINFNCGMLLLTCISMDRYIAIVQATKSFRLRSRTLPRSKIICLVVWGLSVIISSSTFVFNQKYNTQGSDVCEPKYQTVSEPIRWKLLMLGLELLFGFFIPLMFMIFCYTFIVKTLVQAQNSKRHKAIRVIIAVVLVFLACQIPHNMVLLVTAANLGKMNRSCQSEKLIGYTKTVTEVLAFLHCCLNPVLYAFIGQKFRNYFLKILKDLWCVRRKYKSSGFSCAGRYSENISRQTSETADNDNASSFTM

CYP2C9 = CYP2C9 (Homo sapiens, UniProt P11712); experiment: Inhibition of CYP2C9 in human liver microsomes at 10 uM using tolbutamide as substrate preincubated for 10 mins followed by NADPH addition measured after 10 mins by LC-MS/MS analysis relative to control; assay type: ADME; conditions: probe tolbutamide
Chain of CYP2C9 (P11712 whole entry): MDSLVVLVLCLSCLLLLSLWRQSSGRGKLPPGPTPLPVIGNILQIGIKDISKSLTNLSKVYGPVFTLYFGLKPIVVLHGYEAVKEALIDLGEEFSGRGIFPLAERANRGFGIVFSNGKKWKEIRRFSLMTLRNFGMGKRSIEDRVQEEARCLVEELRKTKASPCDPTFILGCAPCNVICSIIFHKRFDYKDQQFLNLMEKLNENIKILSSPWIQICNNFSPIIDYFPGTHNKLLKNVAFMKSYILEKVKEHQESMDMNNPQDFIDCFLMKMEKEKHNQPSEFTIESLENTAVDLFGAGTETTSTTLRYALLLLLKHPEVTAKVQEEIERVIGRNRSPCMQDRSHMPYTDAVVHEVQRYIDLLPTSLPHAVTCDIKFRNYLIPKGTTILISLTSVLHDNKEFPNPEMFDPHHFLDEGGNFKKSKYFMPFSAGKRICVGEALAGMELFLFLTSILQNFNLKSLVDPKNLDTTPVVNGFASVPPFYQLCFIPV

[14] = target: Voltage-gated inwardly rectifying potassium channel KCNH2 (Homo sapiens, UniProt Q12809); experiment: Inhibition of human ERG stably expressed in CHO cells at -80 mV holding potential measured after 4 mins by Qpatch electrophysiological assay; assay type: cell-based
Chain of Voltage-gated inwardly rectifying potassium channel KCNH2 (Q12809 whole entry): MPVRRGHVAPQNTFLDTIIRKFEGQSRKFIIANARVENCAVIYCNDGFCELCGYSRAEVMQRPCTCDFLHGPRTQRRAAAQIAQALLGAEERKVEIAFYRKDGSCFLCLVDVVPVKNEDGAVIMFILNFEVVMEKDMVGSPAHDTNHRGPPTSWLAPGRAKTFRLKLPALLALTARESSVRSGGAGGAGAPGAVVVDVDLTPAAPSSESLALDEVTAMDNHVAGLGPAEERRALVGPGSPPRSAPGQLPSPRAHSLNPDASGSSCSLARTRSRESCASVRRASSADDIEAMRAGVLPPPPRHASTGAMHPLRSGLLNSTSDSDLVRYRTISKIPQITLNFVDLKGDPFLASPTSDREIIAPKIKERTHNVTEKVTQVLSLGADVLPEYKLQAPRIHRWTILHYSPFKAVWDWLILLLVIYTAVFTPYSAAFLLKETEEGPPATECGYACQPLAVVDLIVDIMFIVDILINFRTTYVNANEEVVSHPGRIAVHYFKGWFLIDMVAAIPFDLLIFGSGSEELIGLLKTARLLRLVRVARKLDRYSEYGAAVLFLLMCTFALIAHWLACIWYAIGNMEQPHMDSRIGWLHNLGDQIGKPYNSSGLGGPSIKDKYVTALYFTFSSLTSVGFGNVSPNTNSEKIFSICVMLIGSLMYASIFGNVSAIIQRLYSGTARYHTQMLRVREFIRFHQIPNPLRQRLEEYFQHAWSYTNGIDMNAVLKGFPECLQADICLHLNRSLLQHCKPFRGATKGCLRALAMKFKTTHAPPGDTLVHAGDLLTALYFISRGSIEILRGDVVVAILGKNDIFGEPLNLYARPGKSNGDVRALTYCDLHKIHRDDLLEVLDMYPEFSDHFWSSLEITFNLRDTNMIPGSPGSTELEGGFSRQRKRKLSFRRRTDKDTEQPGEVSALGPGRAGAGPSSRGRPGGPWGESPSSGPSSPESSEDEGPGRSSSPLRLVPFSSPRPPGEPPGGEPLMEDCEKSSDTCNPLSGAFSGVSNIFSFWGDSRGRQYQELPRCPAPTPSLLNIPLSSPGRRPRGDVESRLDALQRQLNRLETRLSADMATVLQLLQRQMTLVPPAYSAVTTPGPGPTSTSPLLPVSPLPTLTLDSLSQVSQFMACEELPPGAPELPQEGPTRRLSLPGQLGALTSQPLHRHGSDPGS

CYP3A4 [15] = target: T5, CYP3A4 (Homo sapiens, UniProt P08684); experiment: Inhibition of CYP3A4 in human liver microsomes at 10 uM using testosterone as substrate preincubated for 10 mins followed by NADPH addition measured after 10 mins by LC-MS/MS analysis relative to control; assay type: ADME; conditions: probe testosterone, time 20 min
T5 sequence (P08684 whole entry): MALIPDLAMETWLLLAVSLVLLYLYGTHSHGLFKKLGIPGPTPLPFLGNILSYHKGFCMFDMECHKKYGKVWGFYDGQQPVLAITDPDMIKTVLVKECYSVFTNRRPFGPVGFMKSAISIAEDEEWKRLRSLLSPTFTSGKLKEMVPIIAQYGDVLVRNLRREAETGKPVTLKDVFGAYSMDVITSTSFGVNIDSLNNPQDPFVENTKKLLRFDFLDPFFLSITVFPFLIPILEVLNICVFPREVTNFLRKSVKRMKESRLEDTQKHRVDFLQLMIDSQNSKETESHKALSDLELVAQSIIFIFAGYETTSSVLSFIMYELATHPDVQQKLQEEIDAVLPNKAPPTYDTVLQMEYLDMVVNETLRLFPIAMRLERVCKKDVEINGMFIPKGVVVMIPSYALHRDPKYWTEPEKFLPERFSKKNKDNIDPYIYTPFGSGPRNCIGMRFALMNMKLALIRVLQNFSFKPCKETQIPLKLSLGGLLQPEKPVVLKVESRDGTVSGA

[16] = 1-Octanol/water partition coefficient, log P of compound at pH 7.4 measured after 24 hrs by shake flask method; assay type: physicochemical
CYP2D6 = CYP2D6 (Homo sapiens, UniProt P10635); experiment: Inhibition of CYP2D6 in human liver microsomes at 10 uM using dextromethorphan as substrate preincubated for 10 mins followed by NADPH addition measured after 10 mins by LC-MS/MS analysis relative to control; assay type: ADME; conditions: probe dextromethorphan, time 20 min
Chain of CYP2D6 (P10635 whole entry): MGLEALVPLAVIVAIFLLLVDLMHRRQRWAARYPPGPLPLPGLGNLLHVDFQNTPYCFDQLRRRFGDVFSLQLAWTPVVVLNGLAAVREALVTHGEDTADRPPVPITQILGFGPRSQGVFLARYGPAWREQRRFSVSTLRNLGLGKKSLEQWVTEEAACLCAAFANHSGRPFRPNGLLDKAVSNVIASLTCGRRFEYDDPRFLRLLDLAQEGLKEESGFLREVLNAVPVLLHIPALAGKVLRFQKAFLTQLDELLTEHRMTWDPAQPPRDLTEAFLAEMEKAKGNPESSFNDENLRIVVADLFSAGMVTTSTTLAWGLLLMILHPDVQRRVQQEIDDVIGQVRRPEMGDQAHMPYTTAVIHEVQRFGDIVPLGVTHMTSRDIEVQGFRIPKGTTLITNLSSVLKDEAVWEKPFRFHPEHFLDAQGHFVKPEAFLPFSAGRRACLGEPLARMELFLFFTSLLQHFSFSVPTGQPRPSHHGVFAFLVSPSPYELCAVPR

MEF = experiment: Cytotoxicity against MEF cells assessed as reduction in cell proliferation up to 1000 nM by ATP-based celltiter-glo luminescent assay; conditions: mouse
Lewis lung carcinoma = experiment: Antimetastatic activity against RFP-labelled LL2 cells allografted in C57BL6 mouse assessed as reduction in metastatic lung nodules at 70 mg/kg, ip treated 30 mins prior to tumor implantation followed by redosing at 3 hrs post tumor implantation and subsequent daily dosing for 18 days by fluorescence assay; assay type: functional, organism-based; conditions: time 18.0 day
[17] = Half life in human liver microsomes at 1 uM peincubated for 10 mins followed by NADPH addition and measured 60 mins by LC-MS/MS analysis; assay type: ADME, Microsome; conditions: time 70 min
CYP3A4 [18] = target: T5, CYP3A4; experiment: Inhibition of CYP3A4 in human liver microsomes at 10 uM using midazolam as substrate preincubated for 10 mins followed by NADPH addition measured after 10 mins by LC-MS/MS analysis relative to control; assay type: ADME; conditions: probe midazolam, time 20 min

Cc1nc(CN(C)[C@H]2CCCc3cccnc32)cc(N2CCN3CCC[C@H]3C2)n1
half-life at 1 µM [1]: < 1 min | CLint scaled at 1 µM [2]: > 497 mL/min/kg

Cc1ccc([C@@H]2CCCN2Cc2cc(N3CCN(C)CC3)nc(C)n2)nc1
IC50 [3]: 4.9 nM

Cc1nc(CN(C)C2CCCc3cccnc32)c(F)c(N2CCN(C)CC2)n1 (stereo unspecified)
half-life at 1 µM [1]: 2.31 min | CLint scaled at 1 µM [2]: 1080 mL/min/kg

Cc1nc(CN2CCC[C@@H]2c2ccccn2)cc(N2CCN(C)CC2)n1
IC50 [4]: > 10000 nM

CN1CCN(c2cc(CN(C)C3CCCc4cccnc43)nc(N)n2)CC1 (stereo unspecified)
half-life at 1 µM [1]: 3.24 min | CLint scaled at 1 µM [2]: 767 mL/min/kg

Cc1nc(CN(C)[C@H]2CCCc3cccnc32)cc(N2C[C@@H](C)N(C)[C@@H](C)C2)n1
half-life at 1 µM [1]: < 1 min | CLint scaled at 1 µM [2]: > 497 mL/min/kg

CN1CCN(c2cccc3nc(CN(C)[C@H]4CCCc5cccnc54)c(CO)n23)CC1
half-life at 1 µM [1]: 3.82 min | CLint scaled at 1 µM [2]: 651 mL/min/kg

COc1nc(CN(C)C2CCCc3cccnc32)cc(N2CCN(C)CC2)n1 (stereo unspecified)
half-life at 1 µM [1]: 2.2 min | CLint scaled at 1 µM [2]: 1130 mL/min/kg

CCc1nc(CN(C)C2CCCc3cccnc32)cc(N2CCN(C)CC2)n1 (stereo unspecified)
half-life at 1 µM [1]: 1.19 min | CLint scaled at 1 µM [2]: 2090 mL/min/kg

Cc1nc(CN2CCCC2c2ccccn2)cc(N2CCN(C)CC2)n1 (stereo unspecified)
IC50 [4]: 319 nM

Cc1nc(CN2CCC[C@H]2c2ncccc2C)cc(N2CCCN(C)CC2)n1
IC50 [3]: 0.4 nM

Cc1nc(CN(C)[C@H]2CCCc3cccnc32)cc(N2CCN(C)[C@@H](C)C2)n1
half-life at 1 µM [1]: 1.6 min | CLint scaled at 1 µM [2]: 1550 mL/min/kg

Cc1cccc([C@@H]2CCCN2Cc2cc(N3CCN(C)CC3)nc(C)n2)n1
IC50 [4]: 2390 nM

c1cc(CN2CCCNCCNCCCNCC2)ccc1CN1CCCNCCNCCCNCC1
inhibition [5]: Active

Cc1nc(CN(C)[C@H]2CCCc3cccnc32)cc(N2CCN(C)CC2)n1
half-life at 1 µM [1]: 1.59 min | CLint scaled at 1 µM [2]: 1570 mL/min/kg

Cc1nc(CN2CCCCC2c2ccccn2)cc(N2CCN(C)CC2)n1 (stereo unspecified)
IC50 [4]: 620 nM

CCN(Cc1cc(N2CCN(C)CC2)nc(C)n1)C1CCCc2cccnc21 (stereo unspecified)
half-life at 1 µM [1]: 1.95 min | CLint scaled at 1 µM [2]: 1280 mL/min/kg

Cc1nc(CN(C)[C@H]2CCCc3cccnc32)cc(N2CCN(C)[C@H](C)C2)n1
half-life at 1 µM [1]: < 1 min | CLint scaled at 1 µM [2]: > 497 mL/min/kg

Cc1nc(CN(C)C2CCCc3cccnc32)c(C#N)c(N2CCN(C)CC2)n1 (stereo unspecified)
half-life at 1 µM [1]: 1.51 min | CLint scaled at 1 µM [2]: 1640 mL/min/kg

Cc1ccnc([C@@H]2CCCN2Cc2cc(N3CCN(C)CC3)nc(C)n2)c1
IC50 [4]: 216 nM

Cc1nc(CN2CCC[C@H]2c2ncccc2C)cc(N2CCN(C)CC2)n1
fraction unbound at 1 µM [6]: 0.05 | inhibition at 10 min, 10 µM (CYP2C19): 11% | pKa [7]: 8.2 | inhibition at 10 min, 10 µM (CYP1A2): -6% | fraction unbound at 1 µM [8]: 0.67 | inhibition [9]: inactive | Activity (MDA-MB-231): Non-Toxic | Activity (L929): Non-Toxic | fraction unbound at 1 µM [10]: 0.56 | CLint scaled at 1 µM [11]: 66 mL/min/kg | Activity [12]: Non-Toxic | inhibition [13]: inactive | inhibition at 10 min, 10 µM (CYP2C9): 1% | IC50 [14]: > 30000 nM | half-life at 1 µM [1]: 20.2 min | inhibition at 10 min, 10 µM (CYP3A4 [15]): -4% | logD at 24 h [16]: 1.12 | IC50 [3]: 0.25 nM | inhibition at 10 min, 10 µM (CYP2D6): -5% | CLint scaled at 1 µM [2]: 123 mL/min/kg | Activity (MEF): Non-Toxic | Activity (Lewis lung carcinoma): Active | inhibition [5]: Active | half-life at 1 µM [17]: 26.2 min | inhibition at 10 min, 10 µM (CYP3A4 [18]): 7% | IC50 [4]: 79 nM

Cc1nc(CN2CCC(C)C2c2ccccn2)cc(N2CCN(C)CC2)n1 (stereo unspecified)
IC50 [4]: 1550 nM

CN1CCN(c2cc(CN(C)C3CCCc4cccnc43)nc(C3CC3)n2)CC1 (stereo unspecified)
half-life at 1 µM [1]: 1.02 min | CLint scaled at 1 µM [2]: 2440 mL/min/kg

Cc1nc(CN2CCC[C@H]2c2ccccn2)cc(N2CCN(C)CC2)n1
IC50 [3]: 2.7 nM | IC50 [4]: 220 nM

CCN1CCN(c2cc(CN(C)[C@H]3CCCc4cccnc43)nc(C)n2)CC1
half-life at 1 µM [1]: 1.14 min | CLint scaled at 1 µM [2]: 2180 mL/min/kg

Cc1nc(CN2CCC[C@H]2c2ncccc2C)cc(N2CCC(N(C)C)CC2)n1
IC50 [3]: 13 nM
